Test results as given in PMC9571063 (Molecules, 2022).
Read-outs that look alike come from different tables or passages of the source.

Assays:
ASK2 = molecular target: T1, ASK2 (Homo sapiens, UniProt O95382); test: KINOMEscan; assay type: binding; settings: read-out: Percent Control
T1 construct: purchased Eurofins DiscoverX KINOMEscan (scanMAX 468)

MEK2 = molecular target: T2, MEK2 (Homo sapiens, UniProt P36507); test: KINOMEscan; assay type: binding; settings: read-out: Percent Control
T2 construct: purchased Eurofins DiscoverX KINOMEscan (scanMAX 468)

[1] = molecular target: T3, RPS6KA4(Kin.Dom.1-N-terminal) (Homo sapiens, UniProt O75676); test: KINOMEscan; assay type: binding; settings: read-out: Percent Control
T3 construct: RPS6KA4(Kin.Dom.1-N-terminal); purchased Eurofins DiscoverX KINOMEscan (scanMAX 468)

PLK4 = molecular target: T4, PLK4 (Homo sapiens, UniProt O00444); test: KINOMEscan; assay type: binding; settings: read-out: Percent Control
T4 construct: purchased Eurofins DiscoverX KINOMEscan (scanMAX 468)

BLK = molecular target: T5, BLK (Homo sapiens, UniProt P51451); test: KINOMEscan; assay type: binding; settings: read-out: Percent Control
T5 construct: purchased Eurofins DiscoverX KINOMEscan (scanMAX 468)

MYO3A = molecular target: T6, MYO3A (Homo sapiens, UniProt Q8NEV4); test: KINOMEscan; assay type: binding; settings: read-out: Percent Control
T6 construct: purchased Eurofins DiscoverX KINOMEscan (scanMAX 468)

FLT3(R834Q) = molecular target: T7, FLT3(R834Q) (Homo sapiens, UniProt P36888, R834Q); test: KINOMEscan; assay type: binding; settings: read-out: Percent Control
T7 construct: purchased Eurofins DiscoverX KINOMEscan (scanMAX 468)

KIT(D816H) = molecular target: T8, KIT(D816H) (Homo sapiens, UniProt P10721, D816H); test: KINOMEscan; assay type: binding; settings: read-out: Percent Control
T8 construct: purchased Eurofins DiscoverX KINOMEscan (scanMAX 468)

AXL = molecular target: T9, AXL (Homo sapiens, UniProt P30530); test: KINOMEscan; assay type: binding; settings: read-out: Percent Control
T9 construct: purchased Eurofins DiscoverX KINOMEscan (scanMAX 468)

PRKCD = molecular target: T10, PRKCD (Homo sapiens, UniProt Q05655); test: KINOMEscan; assay type: binding; settings: read-out: Percent Control
T10 construct: purchased Eurofins DiscoverX KINOMEscan (scanMAX 468)

SNARK = molecular target: T11, SNARK (Homo sapiens, UniProt Q9H093); test: KINOMEscan; assay type: binding; settings: read-out: Percent Control
T11 construct: purchased Eurofins DiscoverX KINOMEscan (scanMAX 468)

MDA-MB-231 = tested on: MDA-MB-231; set-up: method as in ref 14 (a number printed in a supplementary file, which may have a reference list of its own: not looked up in the article's list); settings: DB18[a], footnote not given; read-out: Cytotoxic studies IC50 MDA-MB-231; cited from earlier work
PRKCI = molecular target: T12, PRKCI (Homo sapiens, UniProt P41743); test: KINOMEscan; assay type: binding; settings: read-out: Percent Control
T12 construct: purchased Eurofins DiscoverX KINOMEscan (scanMAX 468)

AKT2 = molecular target: T13, AKT2 (Homo sapiens, UniProt P31751); test: KINOMEscan; assay type: binding; settings: read-out: Percent Control
T13 construct: purchased Eurofins DiscoverX KINOMEscan (scanMAX 468)

PIM3 = molecular target: T14, PIM3 (Homo sapiens, UniProt Q86V86); test: KINOMEscan; assay type: binding; settings: read-out: Percent Control
T14 construct: purchased Eurofins DiscoverX KINOMEscan (scanMAX 468)

FLT3(ITD,D835V) = test: KINOMEscan; assay type: binding, human; settings: 1 μM
EGFR(G719C) = molecular target: T15, EGFR(G719C) (Homo sapiens, UniProt P00533, G719C); test: KINOMEscan; assay type: binding; settings: read-out: Percent Control
T15 construct: purchased Eurofins DiscoverX KINOMEscan (scanMAX 468)

BMPR1A = molecular target: T16, BMPR1A (Homo sapiens, UniProt P36894); test: KINOMEscan; assay type: binding; settings: read-out: Percent Control
T16 construct: purchased Eurofins DiscoverX KINOMEscan (scanMAX 468)

MmCLK1 = molecular target: T17, MmCLK1 (Mus musculus, UniProt P22518); set-up: method as in ref 13 (a number printed in a supplementary file, which may have a reference list of its own: not looked up in the article's list); settings: DB18, cited from earlier work
T17 construct: host or cells: bacteria

[2] = molecular target: T18, RPS6KA5(Kin.Dom.1-N-terminal) (Homo sapiens, UniProt O75582); test: KINOMEscan; assay type: binding; settings: read-out: Percent Control
T18 construct: RPS6KA5(Kin.Dom.1-N-terminal); purchased Eurofins DiscoverX KINOMEscan (scanMAX 468)

DDR1 = molecular target: T19, DDR1 (Homo sapiens, UniProt Q08345); test: KINOMEscan; assay type: binding; settings: read-out: Percent Control
T19 construct: purchased Eurofins DiscoverX KINOMEscan (scanMAX 468)

HIPK1 = molecular target: T20, HIPK1 (Homo sapiens, UniProt Q86Z02); test: KINOMEscan; assay type: binding; settings: read-out: Percent Control
T20 construct: purchased Eurofins DiscoverX KINOMEscan (scanMAX 468)

PIK3CA(I800L) = molecular target: T21, PIK3CA(I800L) (Homo sapiens, UniProt P42336, I800L); test: KINOMEscan; assay type: binding; settings: read-out: Percent Control
T21 construct: purchased Eurofins DiscoverX KINOMEscan (scanMAX 468)

BMX = molecular target: T22, BMX (Homo sapiens, UniProt P51813); test: KINOMEscan; assay type: binding; settings: read-out: Percent Control
T22 construct: purchased Eurofins DiscoverX KINOMEscan (scanMAX 468)

[3] = molecular target: T23, ABL1(Y253F)-phosphorylated (Homo sapiens, UniProt P00519, Y253F); test: KINOMEscan; assay type: binding; settings: read-out: Percent Control
T23 construct: purchased Eurofins DiscoverX KINOMEscan (scanMAX 468)

MAP3K4 = molecular target: T24, MAP3K4 (Homo sapiens, UniProt Q9Y6R4); test: KINOMEscan; assay type: binding; settings: read-out: Percent Control
T24 construct: purchased Eurofins DiscoverX KINOMEscan (scanMAX 468)

TNK2 = molecular target: T25, TNK2 (Homo sapiens, UniProt Q07912); test: KINOMEscan; assay type: binding; settings: read-out: Percent Control
T25 construct: purchased Eurofins DiscoverX KINOMEscan (scanMAX 468)

EPHA2 = molecular target: T26, EPHA2 (Homo sapiens, UniProt P29317); test: KINOMEscan; assay type: binding; settings: read-out: Percent Control
T26 construct: purchased Eurofins DiscoverX KINOMEscan (scanMAX 468)

RIOK3 = molecular target: T27, RIOK3 (Homo sapiens, UniProt O14730); test: KINOMEscan; assay type: binding; settings: read-out: Percent Control
T27 construct: purchased Eurofins DiscoverX KINOMEscan (scanMAX 468)

PKNB(M.tuberculosis) = molecular target: T28, PKNB(M.tuberculosis) (Mycobacterium tuberculosis, UniProt P9WI81); test: KINOMEscan; assay type: binding; settings: read-out: Percent Control
T28 construct: purchased Eurofins DiscoverX KINOMEscan (scanMAX 468)

CDC2L5 = molecular target: T29, CDC2L5 (Homo sapiens, UniProt Q14004); test: KINOMEscan; assay type: binding; settings: read-out: Percent Control
T29 construct: purchased Eurofins DiscoverX KINOMEscan (scanMAX 468)

MYLK = molecular target: T30, MYLK (Homo sapiens, UniProt Q15746); test: KINOMEscan; assay type: binding; settings: read-out: Percent Control
T30 construct: purchased Eurofins DiscoverX KINOMEscan (scanMAX 468)

PAK6 = molecular target: T31, PAK6 (Homo sapiens, UniProt Q9NQU5); test: KINOMEscan; assay type: binding; settings: read-out: Percent Control
T31 construct: purchased Eurofins DiscoverX KINOMEscan (scanMAX 468)

PDGFRB = molecular target: T32, PDGFRB (Homo sapiens, UniProt P09619); test: KINOMEscan; assay type: binding; settings: read-out: Percent Control
T32 construct: purchased Eurofins DiscoverX KINOMEscan (scanMAX 468)

PIK3CA(H1047Y) = molecular target: T33, PIK3CA(H1047Y) (Homo sapiens, UniProt P42336, H1047Y); test: KINOMEscan; assay type: binding; settings: read-out: Percent Control
T33 construct: purchased Eurofins DiscoverX KINOMEscan (scanMAX 468)

HPK1 = molecular target: T34, HPK1 (Homo sapiens, UniProt Q92918); test: KINOMEscan; assay type: binding; settings: read-out: Percent Control
T34 construct: purchased Eurofins DiscoverX KINOMEscan (scanMAX 468)

DDR2 = molecular target: T35, DDR2 (Homo sapiens, UniProt Q16832); test: KINOMEscan; assay type: binding; settings: read-out: Percent Control
T35 construct: purchased Eurofins DiscoverX KINOMEscan (scanMAX 468)

PAK1 = molecular target: T36, PAK1 (Homo sapiens, UniProt Q13153); test: KINOMEscan; assay type: binding; settings: read-out: Percent Control
T36 construct: purchased Eurofins DiscoverX KINOMEscan (scanMAX 468)

FLT3(D835Y) = molecular target: T37, FLT3(D835Y) (Homo sapiens, UniProt P36888, D835Y); test: KINOMEscan; assay type: binding; settings: read-out: Percent Control
T37 construct: purchased Eurofins DiscoverX KINOMEscan (scanMAX 468)

T17 sequence (P22518 whole entry): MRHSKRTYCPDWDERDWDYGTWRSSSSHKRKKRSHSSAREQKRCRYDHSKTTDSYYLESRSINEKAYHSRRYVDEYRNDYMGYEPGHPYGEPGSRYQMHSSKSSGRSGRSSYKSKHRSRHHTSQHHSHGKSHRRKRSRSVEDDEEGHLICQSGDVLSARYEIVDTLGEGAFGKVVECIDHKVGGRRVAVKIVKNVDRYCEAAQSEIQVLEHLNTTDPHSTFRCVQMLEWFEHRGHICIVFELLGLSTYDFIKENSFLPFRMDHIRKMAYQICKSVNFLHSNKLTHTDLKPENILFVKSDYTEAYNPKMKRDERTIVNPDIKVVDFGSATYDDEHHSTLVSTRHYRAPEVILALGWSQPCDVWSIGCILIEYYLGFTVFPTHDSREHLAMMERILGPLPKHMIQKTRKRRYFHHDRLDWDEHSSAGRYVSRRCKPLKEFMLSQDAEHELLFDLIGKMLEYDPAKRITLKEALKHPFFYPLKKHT
T6 sequence (Q8NEV4 whole entry): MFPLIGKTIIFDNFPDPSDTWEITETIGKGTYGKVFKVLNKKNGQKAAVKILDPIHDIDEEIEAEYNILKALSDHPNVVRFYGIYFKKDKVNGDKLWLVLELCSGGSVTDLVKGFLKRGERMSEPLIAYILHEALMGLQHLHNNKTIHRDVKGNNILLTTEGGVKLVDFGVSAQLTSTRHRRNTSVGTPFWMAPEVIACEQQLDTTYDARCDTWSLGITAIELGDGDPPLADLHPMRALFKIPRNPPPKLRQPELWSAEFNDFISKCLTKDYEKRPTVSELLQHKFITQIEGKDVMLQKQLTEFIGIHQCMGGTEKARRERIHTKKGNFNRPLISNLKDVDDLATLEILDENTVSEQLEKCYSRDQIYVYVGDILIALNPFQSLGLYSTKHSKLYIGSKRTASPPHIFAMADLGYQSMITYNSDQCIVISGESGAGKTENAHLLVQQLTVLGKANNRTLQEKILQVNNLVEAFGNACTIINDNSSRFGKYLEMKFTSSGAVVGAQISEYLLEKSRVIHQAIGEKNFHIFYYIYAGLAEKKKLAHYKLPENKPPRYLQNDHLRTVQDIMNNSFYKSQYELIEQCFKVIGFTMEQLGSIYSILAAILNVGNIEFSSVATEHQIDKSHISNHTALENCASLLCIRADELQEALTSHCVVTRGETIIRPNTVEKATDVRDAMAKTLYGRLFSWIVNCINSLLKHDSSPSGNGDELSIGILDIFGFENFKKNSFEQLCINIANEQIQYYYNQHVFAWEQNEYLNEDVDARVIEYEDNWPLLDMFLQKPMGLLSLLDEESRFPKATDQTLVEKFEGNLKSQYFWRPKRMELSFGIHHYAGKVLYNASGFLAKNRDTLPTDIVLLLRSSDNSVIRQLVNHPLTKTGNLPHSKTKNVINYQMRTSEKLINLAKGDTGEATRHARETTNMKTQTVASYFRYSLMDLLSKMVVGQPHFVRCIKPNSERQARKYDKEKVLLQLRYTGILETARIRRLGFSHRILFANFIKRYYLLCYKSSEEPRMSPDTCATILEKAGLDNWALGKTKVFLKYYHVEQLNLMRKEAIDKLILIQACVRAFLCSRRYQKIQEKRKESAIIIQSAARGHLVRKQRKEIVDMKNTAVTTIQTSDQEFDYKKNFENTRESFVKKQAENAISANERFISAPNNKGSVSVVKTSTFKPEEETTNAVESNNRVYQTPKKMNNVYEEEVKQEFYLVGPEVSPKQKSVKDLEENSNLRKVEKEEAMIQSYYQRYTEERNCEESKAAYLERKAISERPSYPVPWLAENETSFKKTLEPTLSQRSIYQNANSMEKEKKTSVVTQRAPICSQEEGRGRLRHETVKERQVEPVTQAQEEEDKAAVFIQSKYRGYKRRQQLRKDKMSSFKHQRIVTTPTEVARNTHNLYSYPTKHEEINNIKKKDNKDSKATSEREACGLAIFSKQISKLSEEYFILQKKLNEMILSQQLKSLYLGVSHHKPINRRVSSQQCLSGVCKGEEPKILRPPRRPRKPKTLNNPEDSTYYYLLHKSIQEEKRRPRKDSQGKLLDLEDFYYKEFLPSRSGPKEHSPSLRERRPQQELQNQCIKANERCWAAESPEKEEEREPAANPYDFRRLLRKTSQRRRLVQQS
T26 sequence (P29317 24-976): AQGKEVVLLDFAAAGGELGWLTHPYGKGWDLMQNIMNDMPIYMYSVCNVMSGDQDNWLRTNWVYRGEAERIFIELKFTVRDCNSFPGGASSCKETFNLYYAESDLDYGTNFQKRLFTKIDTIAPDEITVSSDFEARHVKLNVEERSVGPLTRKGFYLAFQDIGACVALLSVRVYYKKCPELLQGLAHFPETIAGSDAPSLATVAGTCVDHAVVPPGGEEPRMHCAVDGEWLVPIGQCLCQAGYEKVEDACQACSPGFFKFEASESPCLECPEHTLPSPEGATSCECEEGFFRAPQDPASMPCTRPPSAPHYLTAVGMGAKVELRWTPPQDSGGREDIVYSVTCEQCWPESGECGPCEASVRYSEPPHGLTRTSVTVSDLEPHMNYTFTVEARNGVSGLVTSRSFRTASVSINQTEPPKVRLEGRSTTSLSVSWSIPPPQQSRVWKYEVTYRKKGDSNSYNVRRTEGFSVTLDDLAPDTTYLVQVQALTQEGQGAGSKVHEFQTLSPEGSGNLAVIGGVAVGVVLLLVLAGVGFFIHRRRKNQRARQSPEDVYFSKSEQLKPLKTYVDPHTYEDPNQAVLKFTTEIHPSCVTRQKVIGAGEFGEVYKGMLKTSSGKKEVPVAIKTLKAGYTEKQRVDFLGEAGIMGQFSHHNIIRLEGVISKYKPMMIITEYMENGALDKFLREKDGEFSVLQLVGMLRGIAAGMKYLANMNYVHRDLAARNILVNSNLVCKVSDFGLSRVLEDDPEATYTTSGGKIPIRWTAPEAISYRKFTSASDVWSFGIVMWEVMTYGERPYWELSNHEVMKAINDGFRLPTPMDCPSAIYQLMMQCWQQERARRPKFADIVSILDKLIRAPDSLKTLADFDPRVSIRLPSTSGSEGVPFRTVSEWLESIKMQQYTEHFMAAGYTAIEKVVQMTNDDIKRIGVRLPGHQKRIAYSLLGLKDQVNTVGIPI
T36 sequence (Q13153 whole entry): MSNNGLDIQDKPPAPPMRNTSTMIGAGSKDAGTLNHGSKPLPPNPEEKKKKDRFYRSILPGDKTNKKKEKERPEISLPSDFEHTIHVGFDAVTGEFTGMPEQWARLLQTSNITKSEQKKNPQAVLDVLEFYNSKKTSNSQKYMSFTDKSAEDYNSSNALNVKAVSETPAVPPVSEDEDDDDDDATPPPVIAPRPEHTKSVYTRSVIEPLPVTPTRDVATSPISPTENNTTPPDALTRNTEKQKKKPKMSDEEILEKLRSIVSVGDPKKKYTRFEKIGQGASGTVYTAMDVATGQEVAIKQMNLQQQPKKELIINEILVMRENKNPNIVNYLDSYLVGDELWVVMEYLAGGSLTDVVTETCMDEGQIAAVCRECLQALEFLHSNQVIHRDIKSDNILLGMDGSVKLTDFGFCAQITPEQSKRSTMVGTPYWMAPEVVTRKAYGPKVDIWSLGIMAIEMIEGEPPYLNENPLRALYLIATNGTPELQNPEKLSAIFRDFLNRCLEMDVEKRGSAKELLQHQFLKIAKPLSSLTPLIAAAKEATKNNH
T13 sequence (P31751 whole entry): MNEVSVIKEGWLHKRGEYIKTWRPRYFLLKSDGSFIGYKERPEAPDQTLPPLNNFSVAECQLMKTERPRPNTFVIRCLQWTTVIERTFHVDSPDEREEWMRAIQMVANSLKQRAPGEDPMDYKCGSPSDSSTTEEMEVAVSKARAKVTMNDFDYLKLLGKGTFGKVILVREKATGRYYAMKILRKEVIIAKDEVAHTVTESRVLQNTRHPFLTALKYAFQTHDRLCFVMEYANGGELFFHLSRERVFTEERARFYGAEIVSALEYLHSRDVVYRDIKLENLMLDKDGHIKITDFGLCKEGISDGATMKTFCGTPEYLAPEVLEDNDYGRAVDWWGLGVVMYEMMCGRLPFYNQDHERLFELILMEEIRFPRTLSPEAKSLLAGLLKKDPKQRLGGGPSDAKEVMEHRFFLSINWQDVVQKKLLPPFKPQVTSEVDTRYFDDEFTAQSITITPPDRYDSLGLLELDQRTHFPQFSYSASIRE
T12 sequence (P41743 whole entry): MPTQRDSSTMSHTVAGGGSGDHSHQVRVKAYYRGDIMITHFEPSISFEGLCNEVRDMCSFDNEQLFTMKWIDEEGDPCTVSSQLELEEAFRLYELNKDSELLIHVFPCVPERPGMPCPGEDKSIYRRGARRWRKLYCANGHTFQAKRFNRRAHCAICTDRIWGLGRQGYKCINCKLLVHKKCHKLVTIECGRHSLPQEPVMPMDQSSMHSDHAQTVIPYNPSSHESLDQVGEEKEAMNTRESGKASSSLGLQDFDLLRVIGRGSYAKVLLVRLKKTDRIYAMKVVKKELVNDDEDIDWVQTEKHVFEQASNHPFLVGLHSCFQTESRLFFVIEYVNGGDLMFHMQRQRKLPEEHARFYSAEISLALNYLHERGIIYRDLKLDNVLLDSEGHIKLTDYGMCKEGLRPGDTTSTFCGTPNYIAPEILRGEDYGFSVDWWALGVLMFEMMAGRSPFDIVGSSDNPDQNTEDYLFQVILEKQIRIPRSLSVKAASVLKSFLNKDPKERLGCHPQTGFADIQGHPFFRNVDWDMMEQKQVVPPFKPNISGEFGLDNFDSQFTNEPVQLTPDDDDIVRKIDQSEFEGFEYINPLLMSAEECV

Molecule `Cc1ccc(-n2cc(COc3cccc4cnc(Nc5cccc(Cl)c5)nc34)nn2)c([N+](=O)[O-])c1` [DB18] has a remaining binding at 1 µM (ASK2) of 99%, a remaining binding at 1 µM (MEK2) of 89% and a remaining binding at 1 µM [1] of 100%. It also gave a remaining binding at 1 µM (PLK4) of 99%, a remaining binding at 1 µM (BLK) of 100% and a remaining binding at 1 µM (MYO3A) of 100%. The remaining binding at 1 µM (FLT3(R834Q)) was 87%, the remaining binding at 1 µM (KIT(D816H)) was 100% and the remaining binding at 1 µM (AXL) was 87%. For the same molecule, the remaining binding at 1 µM (PRKCD) was 100%, the remaining binding at 1 µM (SNARK) was 100% and the IC50 (MDA-MB-231) was greater than 25 µM. The remaining binding at 1 µM (PRKCI) was 96%, the remaining binding at 1 µM (AKT2) was 100% and the remaining binding at 1 µM (PIM3) was 100%. The “Percent Control” value (FLT3(ITD,D835V)) was 53 % Ctrl, the remaining binding at 1 µM (EGFR(G719C)) was 100% and the remaining binding at 1 µM (BMPR1A) was 68%. The “% of residual activity Mm_CLK1” value (MmCLK1; 1 µM) was 21%, the “% of residual activity Mm_CLK1” value (MmCLK1; 10 µM) was 11% and the remaining binding at 1 µM [2] was 100%. The remaining binding at 1 µM (DDR1) was 100%, the remaining binding at 1 µM (HIPK1) was 19% and the remaining binding at 1 µM (PIK3CA(I800L)) was 77%. The remaining binding at 1 µM (BMX) was 100%, the remaining binding at 1 µM [3] was 97% and the remaining binding at 1 µM (MAP3K4) was 100%. The remaining binding at 1 µM (TNK2) was 100%, the remaining binding at 1 µM (EPHA2) was 100% and the remaining binding at 1 µM (RIOK3) was 100%. The remaining binding at 1 µM (PKNB(M.tuberculosis)) was 97%, the remaining binding at 1 µM (CDC2L5) was 100% and the remaining binding at 1 µM (MYLK) was 92%. It also gave a remaining binding at 1 µM (PAK6) of 100%, a remaining binding at 1 µM (PDGFRB) of 100% and a remaining binding at 1 µM (PIK3CA(H1047Y)) of 96%. For the same molecule, the remaining binding at 1 µM (HPK1) was 100%, the remaining binding at 1 µM (DDR2) was 100% and the remaining binding at 1 µM (PAK1) was 100%. It also gave a remaining binding at 1 µM (FLT3(D835Y)) of 29%.
